Results from patent US20120003298A1, “METHODS FOR INDUCING AN IMMUNE RESPONSE” (priority 2010, published 2012).
Like-named read-outs stand apart in the source and are kept apart here.

Assays:
[1] = Solubility observations in the text; conditions: methanol, ethanol, dichloromethane, ethyl acetate, acetonitrile, acetone, chloroform
[2] = Solubility, method of the European Pharmacopoeia 6.0; assay type: physicochemical
Protocol: The method reported in the European Pharmacopoeia 6.0 was used.
Batch CH730/16/8g was tested according to the method described in E. Ph: DMSO was added in 0.1 mL portions to 103.7 mg of product and the suspension was shaken with a Vortex instrument for 3 min after each addition.
The batches CH730/16/8c, CH730/16/8g and CH730/23/8e were then tested stirring each suspension for a longer time; 100 mg of each batch dissolved completely in 0.2 mL of DMSO after stirring for 30 minutes.

[3] = Stability on storage by HPLC (solid or chloroform solution; temperature, light)
Protocol: At this point, a stability study was conducted on batch CH730/16/8g.
The samples were analyzed at t=0 and after 20 days.

[4] = Metabolic profiling in rabbit plasma, LC/MS/MS; assay type: in vitro ADME
Protocol: (§1) Before the analysis of the incubated samples, compound A was infused manually to understand parent fragmentation. Infusion was performed by diluting a 50 mM solution in DMSO to 1 μM with ACN/MeOH 1/1. Sample solution was infused into the ion trap source at a flow rate of 4 μl/min.
(§2) Incubated samples were analyzed on a HPLC (Waters) interfaced with an Ion Trap HCT ultra (Bruker Daltonics).
(§3) Assignment of the structures was done by comparison of the MS/MS analysis of the spectra with the parent spectrum.
(§4) Metabolic profiling was studied in rabbit and human plasma. In both matrixes the parent compound (50 uM starting concentration) was totally metabolized at the last time point. Metabolites were detected in Full scan and peaks were assigned by MH+ and MS/MS spectra.

[5] = Metabolic profiling in human plasma, LC/MS/MS; assay type: in vitro ADME
Protocol: as §1, §2, §3, §4

[6] = tested on: recombinant antigens from Plasmodium falciparum and Mycobacterium ulcerans; experiment: Pilot immunization study with adjuvanted recombinant protein antigens; assay type: in vivo, mouse; conditions: subcutaneous, 10 nMol
Protocol: A pilot immunization study was conducted using Compound A and SC12 adjuvanted protein antigens. The immunization experiments were performed with two recombinant proteins expressed in E. coli. One antigen was derived from the malaria parasite Plasmodium falciparum and the other one from Mycobacterium ulcerans, which cause the ulcerative skin disease Buruli ulcer.

[7] = tested on: RAW.264 cells; experiment: Intracellular uptake in RAW.264 cells, LC-MS; assay type: in vitro ADME; conditions: 10 microM
Protocol: 5×10^6 RAW.264 cells were adhered overnight in 10 cm tissue culture dishes. […] […] Supernatant (2 ml) and cells (pellets) were collected by trypsinization and frozen at […] for subsequent analysis by LC-MS.

[8] = tested on: PBMCs; experiment: IL-6 and TNF-alpha secretion in PBMC model (Model 2), ELISA; assay type: cell-based, human; conditions: Homo sapiens, PBMC
[9] = tested on: mouse macrophage cell line Raw264.7; experiment: IL-6 and TNF-alpha secretion in Raw264.7 cells (Model 1), ELISA; assay type: cell-based; conditions: for EC50: Raw 264.7, 24 hours, 7 doses
[10] = tested on: human whole blood; experiment: Cytokine secretion in human whole blood assay, ELISA; assay type: cell-based; conditions: Homo sapiens
Protocol: Before drawing the blood, the compounds were added to 96 well round bottom plates in a 10× diluted sample at 20 ul. The compounds were diluted in RPMI media without serum but with antibiotics. Antibiotics were added at a 10× concentration. After drawing the blood, the whole blood sample was gently mixed to obtain a homogeneous sample, and 180 ul was added to each well.
All compounds were setup in concentrations at 0-0.01-0.03-0.1-0.5-2.0-10.0 micromolar as the final concentration. Vehicle control was DMSO control, where we used the highest concentration used for the compounds. After addition of blood, all plates were gently agitated at 37° C. and 5% CO2 until harvest.
For the 6 hours time point, the plate was centrifuged 500×g. Supernatant (SN) was transferred to a tube and centrifuged at 10.000×g for 10 min to get rid of cells and protein aggregates. The clarified supernatant was frozen at −80° C. until analysis.
The SN was removed to another tube and centrifuged at 10.000×g for 10 min. to get rid of aggregates etc. The clarified supernatant was frozen at −80° C. until analysis.
Concentrations of cytokines were determined by ELISA from R&D Systems. The results were analyzed in Graph Pad Prism in order to prepare dose-response
curves, and for determination of EC50 values. FACS analysis was made by using Becton-Dickinson FACSDiva software and subsequently illustrated in Graph Pad Prism.

[11] = tested on: Cutaneous Squamous Cell Carcinoma (SCC) cell lines SCL-I, SCL-II, SCC-12, SCC-13; conditions: FIG. 11
Protocol: SCC cells are grown under standard conditions (10% FBS).
Time and dose dependency of effects on total cell numbers have been investigated by real-time cell analysis, which is based on continuous monitoring of electric conductance in microtiter wells (E-plates, Roche), which corresponds to the cell numbers. […] For these assays 4 cell lines may be used to obtain a representative overview on the effects on SCC cells.

[12] = tested on: MB49 cells; experiment: Mouse bladder cancer model, intravesical treatment (Experiment 24); assay type: in vivo; conditions: Experiment 1; in Phosal 50, 50 microliters, 20 minutes; 2 h and 24 h
Protocol: A set of experiments was conducted with SC12 in various solutions, in a mouse bladder cancer model.
7-9 week old C57BU6 mice were implanted with 1×10^6 MB49 cells after 0.1% poly L lysine treatment on day 0. […] On day 11, mice were sacrificed and organs were harvested.

[13] = Intrabladder application, serum cytokines (Luminex) and histology; assay type: in vivo, mouse; conditions: day 0, 2 hour time point; intravesical about 207 nmoles in 50 μl
Protocol: Female C57BU6 mice were anesthetized with ketamine/xylazine. The 50 microliter formulated compounds were intravesically administered for twenty minutes at each treatment. The treatment schedule and doses are in Table 35 and 36, respectively. The levels of cytokines (IL-6, IL-12, and TNF-alpha) were determined by Luminex assay. Paraffin sections were prepared and H & E staining performed.

[14] = tested on: myeloid CD11c+/CD123− DCs; experiment: FACS, myeloid DC activation in whole blood; assay type: cell-based, human; conditions: 24 hours; 0.1 and 0.5 uM
Protocol: The FACS analysis for donor 1 and donor 2 was made on another day than donor 3. The compound concentrations were as follows:
B cell activation: 2 and 10 uM mDC/pDC: 0.1 and 0.5 uM
The FACS analysis was used to identify whether the test compounds could induce activation of B cells, and two different subsets of dendritic cells, namely the myeloid CD11c+/CD123− DCs and the plasmacytoid CD11c−/CD123+DCs. The following markers were studied to identify the activation status of the different subsets:
The FACS staining was performed according to the manufacturer's instructions. Lysis of red blood cells was performed before FACS staining in order to minimize auto-florescence. To include as many B cells and DCs in the study as possible the FACS analyses were performed on 500,000 cells in total for each staining. A P1 gate was set only to include relevant cells on FSC vs. SSC (see FIGS. 12-15). The results of the individual analysis were present as Mean Fluorescence Intensity (MFI) values, for certain activation marker in a given gate setting, represent the actual cell subset. The isotype background values have been used to set the gates so that a maximum at 2% of unspecific stained cells could be found in the positive gates.
The analysis of myeloid DCs was based on HLA-DR+/CD11c+/CD123-cells, thus all analyzed cells was included in the HLA-DR+(P3) gate and CD11c+/CD123− (Q4) gate (see gates in FIGS. 13-15).

[15] = tested on: human PBMCs; experiment: IL-6 secretion in human PBMCs, two batches of Compound A and SC12 (Example 4); assay type: cell-based; conditions: PBMCs, 10-1-0.1-0.01 micromolar
Protocol: PBMCs were purified from two donors and plated into 96 well plates at 2×10^5 cells/well in RPMI media including human 2% heat inactivated AB serum, glutamine, Pen-strep and β-mercaptoethanol. The cells were treated with TLR7 agonists for 24 h in 4 doses. The conditioned media was removed for ELISA analyses for IL-6, and the EC50 value determined for each compound and each batch.
All compounds were tested in four concentrations (10-1-0.1-0.01 micromolar).
Concentrations of IL-6 were determined by ELISA from R&D Systems using the Microsoft Excel software. The results were analyzed in Graph Pad Prism in order to prepare dose-response curves, and for determination of EC50 values.

[16] = tested on: HLA-DR+/CD20+ B cells; experiment: FACS, B cell activation in whole blood; assay type: cell-based, human; conditions: 24 hours; 2 and 10 uM
Protocol: B-cells: HLA-DR/CD20/CD40
The FACS staining was performed according to the manufacturer's instructions. Lysis of red blood cells was performed before FACS staining in order to minimize auto-florescence. To include as many B cells and DCs in the study as possible the FACS analyses were performed on 500,000 cells in total for each staining. […] The results of the individual analysis were present as Mean Fluorescence Intensity (MFI) values, for certain activation marker in a given gate setting, represent the actual cell subset. The isotype background values have been used to set the gates so that a maximum at 2% of unspecific stained cells could be found in the positive gates.
The analysis of expression of the activation marker CD40 on B cells was made on double positive HLA-DR (MHC class II) (P4 gate) and CD20 cells (B cell marker) (P8 gate).

[17] = tested on: AY-27 rat bladder cancer cell-line; experiment: Orthotopic rat bladder cancer model, intravesical instillation

SMILES: COCCOc1nc(N)c2[nH]c(=O)n(Cc3ccc(C(=O)O)cc3)c2n1 [Compound 7, 4-((6-amino-2-(2-methoxyethoxy)-8-oxo-7H-purin-9(8H)-yl)methyl)benzoic acid]
- solubility in common solvents [1]: not soluble in most of the common solvents

SMILES: CCCCCCCC/C=C\CCCCCCCC(=O)OCC(COP(=O)(O)OCCNC(=O)c1ccc(Cn2c(=O)[nH]c3c(N)nc(OCCOC)nc32)cc1)OC(=O)CCCCCCC/C=C\CCCCCCCC (centres unmarked) [Compound A, 2-(4-((6-amino-2-(2-methoxyethoxy)-8-oxo-7H-purin-9(8H)-yl)methyl)benzamido)ethyl 2,3-bis(oleoyloxy)propyl phosphate]
- solubility in DMSO [2]: soluble
- solubility ([2]; chloroform, organic solvent or mixture, thermodynamic from solid): 100 mg/mL
- solubility at 3 min ([2]; organic solvent or mixture, thermodynamic from solid, batch Ch730/16/8g, DMSO added in 0.1 mL portions, Vortex 3 min after each addition): 259 mg/mL
- solubility at 30 min ([2]; organic solvent or mixture, thermodynamic from solid, three batches, 100 mg in 0.2 mL of DMSO after stirring for 30 minutes): 500 mg/mL
- degradation ([3]; T>25° C. and in the presence of light): rapid degradation
- degradation of solid samples ([3]; batch CH730/16/8g, solid): almost completely degraded after few days
- stability ([3]; room temperature and/or in the presence of light): not a stable compound
- metabolism in plasma [4]: highly metabolized by esterases
- metabolism in plasma [5]: highly metabolized by esterases
- local side effects [6]: No local side effects
- Intracellular Concentration % of total ([7]; Incubation 1 hours): 5.50 % of total
- Intracellular Concentration % of total ([7]; Incubation 6 hours): 4.27 % of total
- Intracellular Concentration % of total ([7]; Incubation 16 hours): 1.53 % of total
- EC50 ([8]; 24 hours, read-out: TNF-alpha secretion, Donor 1 MC50): 644 nM
- EC50 ([8]; 24 hours, read-out: TNF-alpha secretion, Donor 2 MC50): 665 nM
- EC50 ([8]; 24 hours, read-out: TNF-alpha secretion, Donor 3 MC50): 639 nM
- EC50 ([8]; average of three donors, read-out: IL-6 secretion, Average EC50): 485 nM
- EC50 ([8]; average of three donors, read-out: TNF-alpha secretion, Average EC50): 650 nM
- EC50 ([9]; Mus musculus, RAW264.7, read-out: EC 50 IL 6): 6 nM
- EC50 ([9]; Mus musculus, RAW264.7, read-out: EC 50 TNF-alpha): 9 nM
- EC50 ([10]; 6 h, read-out: EC50-IFN-alpha, 6 h Incubation, Donor 1, whole blood): 1170 nM
- EC50 ([10]; 6 h, read-out: EC50-IFN-alpha, 6 h Incubation, Donor 2, whole blood): 1840 nM
- EC50 ([10]; 6 h, read-out: EC50-IFN-alpha, 6 h Incubation, Donor 3, whole blood): 1940 nM
- EC50 ([10]; 6 h, read-out: EC50-IL-6, 6 h Incubation, Donor 1, whole blood): 940 nM
- EC50 ([10]; 6 h, read-out: EC50-IL-6, 6 h Incubation, Donor 2, whole blood): 630 nM
- EC50 ([10]; 6 h, read-out: EC50-IL-6, 6 h Incubation, Donor 3, whole blood): 520 nM
- EC50 ([10]; 6 h, read-out: EC50-IL-12, 6 h Incubation, Donor 1, whole blood, IL-12p40): 2310 nM
- EC50 ([10]; 6 h, read-out: EC50-IL-12, 6 h Incubation, Donor 2, whole blood, IL-12p40): 2090 nM
- EC50 ([10]; 6 h, read-out: EC50-IL-12, 6 h Incubation, Donor 3, whole blood, IL-12p40): 3430 nM
- EC50 ([10]; 24 h, read-out: EC50-IFN-alpha, 24 h Incubation, Donor 1): 240 nM
- EC50 ([10]; 24 h, read-out: EC50-IFN-alpha, 24 h Incubation, Donor 2): 470 nM
- EC50 ([10]; 24 h, read-out: EC50-IFN-alpha, 24 h Incubation, Donor 3): 350 nM
- EC50 ([10]; 24 h, read-out: EC50-IL-6, 24 h Incubation, Donor 1): 520 nM
- EC50 ([10]; 24 h, read-out: EC50-IL-6, 24 h Incubation, Donor 2): 320 nM
- EC50 ([10]; 24 h, read-out: EC50-IL-6, 24 h Incubation, Donor 3): 290 nM
- EC50 ([10]; 24 h, read-out: EC50-IL-10, 24 h Incubation, Donor 1): 1290 nM
- EC50 ([10]; 24 h, read-out: EC50-IL-10, 24 h Incubation, Donor 2): 860 nM
- EC50 ([10]; 24 h, read-out: EC50-IL-10, 24 h Incubation, Donor 3): 2280 nM
- EC50 ([10]; 24 h, whole blood, read-out: EC50-IL-12p40, 24 h Incubation, Donor 1): 2870 nM
- EC50 ([10]; 24 h, whole blood, read-out: EC50-IL-12p40, 24 h Incubation, Donor 2): 2740 nM
- EC50 ([10]; 24 h, whole blood, read-out: EC50-IL-12p40, 24 h Incubation, Donor 3): 4030 nM

SMILES: COCCOc1nc(N)c2[nH]c(=O)n(Cc3ccc(C(=O)O)cc3)c2n1 [Free pharmacophore, reference compound]
- EC50 ([9]; read-out: EC 50 TNF-alpha): 707 nM

SMILES: CC(C)Cn1cnc2c(N)nc3ccccc3c21 [Imiquimod, reference compound]
- cell numbers, real-time cell analysis [11]: reduced cell numbers
- serum IL-6 and TNF-alpha [12]: under the detection levels
- serum IL-12 [13]: elevated levels of IL-12
- CD80 expression in mDCs (MFI, words) [14]: weak expression of CD80 in donor 1 and 2
- potency as TLR7 agonist [9]: weakest induction of IL-6 and TNF-alpha
- IL-6 induction [15]: only active in inducing IL-6 at the highest concentration (10 uM)
- CD40 expression on B cells (MFI, words) [16]: increased expression in all three donors
- toxicity ([17]; intravesical, day 2 and 5): No signs of toxicity
- Number of rat bladders Tumor free ([17]; of 14 per group): 5
- Number of rat bladders with pT2 Tumor ([17]; of 14 per group): 9
